The record followed here is patent publication US7317014B2, “Bio-active pyrimidine molecules” (Orchid Research Laboratories, Ltd., priority 2002, dated 2008).

In one data set the test system is IL-6. The data set is described as follows: IL-6 production from LPS-stimulated human monocytes (ELISA). The data set is classed as cell-based. Conditions: Monocyte; for inhibition at 1 µM: Conc. 1 μM; for inhibition at 10 µM: Conc. 10 μM. As for the experimental part:
Interleukin-6(IL-6) This assay determines the effect of test compounds on the production of IL-6 from human monocytes. Compounds are tested for their ability to downregulate the production of IL-6 in activated monocytes. Test compounds were incubated for three, six and twenty four hours with human monocytes. Lipopolysaccharide was used to stimulate the monocytes. The level of Interleukin-6 is quantitated using Enzyme-Linked Immunosorbent assay performed in a 96 well format.
Background: In an ELISA, binding on a coated surface is turned into a signal by an enzyme label.

The subject of another data set is Male Wistar rats. The data set is described as follows: Rat carrageenan paw edema test. Conditions: oral. The data set is classed as in vivo.
The test system of a further data set is NCI-H460. The data set can be described thus: DTP human tumor cell line one-dose prescreen, NCI-H460. Conditions: Concentration (100 μm), Lung NCI-H460, test/control (T/C). The data set is classed as cell-based. As for the experimental part: (§1) The current assay utilizes a 384 well plate format and fluorescent staining technologies resulting in greater screening capacity for testing of synthetic samples. Cell Lines The cell lines of the cancer screening panel are grown in RPMI 1640 medium containing 5% fetal bovine serum and 2 mM L-glutamine. For a typical screening experiment, cells are inoculated into 96 well microtiter plates in 100 μL. After cell inoculation, the microtiter plates are incubated at 37° C., 5% CO2, 95% air and 100% relative humidity for 24 h prior to addition of experimental drugs. The cells are plated a densities of 5000 cells/well (MCF7), 1000 cells/well (NCI-H460), and 7500 cells/well (SF-268) to allow for varying doubling time of the cell lines. Each plate contains all three cell lines, a series of dilutions of standard agents, total kill wells and appropriate controls. Plates are incubated under standard conditions for 24 hours prior to addition of experimental compounds or extracts. Addition of Experimental Agents (Pure Compounds) […] Two standard drugs, meaning that their activities against the cell lines are well documented, are tested against each cell line: NSC 19893 (5-FU) and NSC 123127 (Adriamycin). Endpoint Measurement After compound addition, plates are incubated at standard conditions for ?hours, 10 μl/well Alamar Blue is added and the plates are incubated for an additional 4 hours. Fluorescence is measured using an excitation wavelength of 530 nm and an emission wavelength of 590 nm. Calculation of Percent Test Cell Growth/Control (Untreated) Cell Growth (T/C) Calculation of Percent Test Cell Growth/Control (Untreated) Cell Growth (T/C) Percent growth is calculated on a plate-by-plate basis for test wells relative to control wells. Percent Growth is expressed as the ratio of fluorescence of the test well to the average fluorescence of the control wells ×100.

The test system of the next data set is SF-268. The data set is described as follows: DTP human tumor cell line one-dose prescreen, SF-268. The data set is classed as cell-based. Conditions: Concentration (100 μm), CNS SF-268, test/control (T/C). As for the experimental part: as §1
The test system of the next data set is MCF7. The data set can be described thus: DTP human tumor cell line one-dose prescreen, MCF7. Format: cell-based. Conditions: Concentration (100 μm), Breast MCF7, test/control (T/C). As for the experimental part: as §1
In the next data set the target is T1, COX-2 (Homo sapiens, UniProt P35354).
T1 construct: incubation of human blood with lipopolysaccharide (LPS), which induces COX-2 production in the blood; endogenous in cells; host or cells: fresh human whole blood from male volunteers, LPS-stimulated, aspirin-pretreated
T1 sequence (P35354 18-604): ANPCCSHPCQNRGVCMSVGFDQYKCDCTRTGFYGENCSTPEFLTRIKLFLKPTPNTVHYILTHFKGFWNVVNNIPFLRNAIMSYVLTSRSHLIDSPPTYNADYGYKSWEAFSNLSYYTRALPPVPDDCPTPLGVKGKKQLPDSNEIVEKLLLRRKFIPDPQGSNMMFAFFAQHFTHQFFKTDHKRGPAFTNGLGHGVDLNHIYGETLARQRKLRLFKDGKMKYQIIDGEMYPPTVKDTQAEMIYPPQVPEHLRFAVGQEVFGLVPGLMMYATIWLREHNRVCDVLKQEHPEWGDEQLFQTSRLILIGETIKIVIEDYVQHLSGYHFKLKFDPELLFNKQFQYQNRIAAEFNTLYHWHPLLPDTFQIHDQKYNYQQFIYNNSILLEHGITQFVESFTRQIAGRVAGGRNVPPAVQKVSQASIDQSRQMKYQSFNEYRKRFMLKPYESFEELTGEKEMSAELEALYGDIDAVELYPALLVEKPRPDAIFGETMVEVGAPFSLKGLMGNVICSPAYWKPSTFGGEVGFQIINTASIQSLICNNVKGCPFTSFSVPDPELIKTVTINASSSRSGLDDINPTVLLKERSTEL
The data set is described as follows: Human whole blood assay, COX-2 inhibition (PGE2 after LPS). The data set is classed as cell-based. Conditions: Conc. 0.1 μM, 24 h. As for the experimental part: The COX-2 inhibition activity of the compounds illustrated in the examples was determined by the following method. Human Whole Blood Assay Human whole blood provides a protein and cell rich milieu appropriate for the study of biochemical efficacy of anti-inflammatory compounds such as selective COX-2 inhibitors. […] This is correlating with the observation that COX-2 inhibitors have no effect on prostaglandin E2 (PGE2) production in normal blood. These inhibitors are active only after incubation of human blood with lipopolysaccharide (LPS), which induces COX-2 production in the blood. Method Fresh blood was collected in tubes containing potassium EDTA by vein puncture from male volunteers. The subjects should have no apparent inflammatory conditions and not taken NSAIDs for atleast 7 days prior to blood collection. Blood was treated with aspirin in vitro (10 μg/ml, at time zero) to inactivate COX-1, and then with LPS (10 μg/ml) along with test agents or vehicle. The blood was incubated for 24 h at 37° C., after which the tubes were centrifuged, the plasma was separated and stored at −80° C. (J. Pharmacol. Exp. Ther., 271, 1705, 1994; Proc. Natl. Acad. Sci. USA., 96, 7563, 1999). The plasma was assayed for PGE2 using Cayman ELISA kit as per the procedure outlined by the manufacturer (Cayman Chemicals, Ann Arbor, USA). The plasma was also tested for TNF-α, IL-1β, and IL-6 using appropriate human ELISA kit as per the procedure of manufacturer (Cayman Chemicals, Ann Arbor, USA).

As for `Cc1ccc(-c2nc(Cl)nc(Cl)c2-c2ccc(Cl)cc2)cc1`, the melting point (commonly the temperature, or range, at which the solid turns liquid) lay within 223 to 225 °C.
Still for that read-out and setting: as for `[N-]=[N+]=Nc1nc(C(F)(F)F)nc(-c2ccccc2)c1-c1ccccc1`, the figure is 126 to 128 °C; as for `CS(=O)(=O)c1ccc(-c2nc(C(F)(F)F)nc(N=[N+]=[N-])c2-c2ccccc2)cc1`, 172 to 175 °C; as for `CS(=O)(=O)c1ccc(-c2nc(C(F)(F)F)nc(N=[N+]=[N-])c2-c2ccc(Cl)cc2)cc1`, 317 to 320 °C.
Same read-out and setting: as for `CS(=O)(=O)c1ccc(-c2nc(C(F)(F)F)nc(N=[N+]=[N-])c2-c2ccc(F)cc2)cc1`, the figure is 285 to 288 °C; as for `NNc1nc(C(F)(F)F)nc(-c2ccc(F)cc2)c1-c1ccccc1`, 175 to 177 °C; as for `CS(=O)(=O)c1ccc(-c2nc(C(F)(F)F)nc(NN)c2-c2ccc(Cl)cc2)cc1`, 266 to 269 °C.
For the molecule `CS(=O)(=O)c1ccc(-c2nc(C(F)(F)F)nc(NN)c2-c2ccc(F)cc2)cc1`, the melting point is 286 to 290 °C.
Consider `CSc1ccc(-c2c(NN)nc(Cl)nc2-c2ccccc2)cc1`, for which the melting point fell in the range of 272 to 274 °C.
`Fc1ccc(-c2nc(C(F)(F)F)nc(Cl)c2-c2ccccc2)cc1` returned a melting point of 67 to 68 °C.
On the same count and under the same terms, as for `CSc1ccc(-c2c(NN)nc(NN)nc2-c2ccccc2)cc1`, the figure is 207 to 210 °C; as for `CC(=O)NNc1nc(C(F)(F)F)nc(-c2ccccc2)c1-c1ccccc1`, 113 to 116 °C.
Still for that read-out and setting: as for `CC(=O)NNc1nc(C(F)(F)F)nc(-c2ccc(F)cc2)c1-c1ccccc1`, the figure is 149 to 153 °C; as for `CC(=O)NNc1nc(C(F)(F)F)nc(-c2ccc(S(C)(=O)=O)cc2)c1-c1ccccc1`, 265 to 268 °C; as for `CC(=O)NNc1nc(C(F)(F)F)nc(-c2ccc(S(C)(=O)=O)cc2)c1-c1ccc(Cl)cc1`, 254 to 256 °C.
On the same count and under the same terms, as for `CS(=O)(=O)c1ccc(-c2nc(C(F)(F)F)nc(NNC(=O)C(F)(F)F)c2-c2ccc(Cl)cc2)cc1`, the figure is 307 to 309 °C; as for `O=c1nc(Cl)cc(-c2ccccc2)n1-c1ccccc1`, 141 to 143 °C.
Molecule `FC(F)(F)c1nc(Cl)c(-c2ccccc2)c(-c2ccccc2)n1` [Example 1, 4-chloro-5,6-diphenyl-2-(trifluoromethyl)pyrimidine] registered a melting point of 105 to 107 °C. Besides, in the data set on IL-6, the inhibition (commonly the relative decrease from the control value, in per cent) at 1 µM is 62.5%.
The like results for `Cc1ccc(-c2nc(C(F)(F)F)nc(Cl)c2-c2ccccc2)cc1` [Example 2, 4-chloro-6-(4-methylphenyl)-5-phenyl-2-(trifluoromethyl)pyrimidine] were, in that order, 97 to 100 °C and 62.3%.
In turn, `Clc1nc(Cl)c(-c2ccccc2)c(-c2ccccc2)n1` [Example 7, 2,4-dichloro-5,6-diphenylpyrimidine] gave a melting point of 144 to 146 °C. The “Rat Paw Edema model % Inhibition (10 mg/kg body weight)” value (shortened to “Rat Paw Edema model % Inhibition”) in the data set on Male Wistar rats is 60.9%.
`Cc1ccc(-c2nc(Cl)nc(Cl)c2-c2ccccc2)cc1` [Example 8, 2,4-dichloro-6-(4-methylphenyl)-5-phenylpyrimidine] had a melting point of 130 to 132 °C. For the same molecule, the “Percentage Growth Lung NCI-H460” value in the data set with NCI-H460 is listed as 1. In addition, the “Percentage Growth CNS SF-268” value in the data set on SF-268 amounted to 6. Further, the “Percentage Growth Breast MCF7” value with MCF7 is 5.
`Clc1ccc(-c2nc(Cl)nc(Cl)c2-c2ccccc2)cc1` [Example 9, 6-(4-chlorophenyl)-2,4-dichloro-5-phenylpyrimidine] had a melting point of 129 to 131 °C. In addition, the “Percentage Growth Lung NCI-H460” value with NCI-H460 was 0. Moreover, in the data set on SF-268, the “Percentage Growth CNS SF-268” value stood at 1. For the same molecule, in the data set on Male Wistar rats, the “Rat Paw Edema model % Inhibition” value was determined as 42.8%. Besides, the “Percentage Growth Breast MCF7” value with MCF7 worked out at 1. The same molecule registered an inhibition at 0.1 µM against COX-2 of 60.5%.
In the case of `Clc1ccc(-c2c(Cl)nc(Cl)nc2-c2ccccc2)cc1` [Example 10, 5-(4-chlorophenyl)-2,4-dichloro-6-phenylpyrimidine], the melting point lay in the range of 123 to 125 °C. Besides, the “Percentage Growth Lung NCI-H460” value in the data set with NCI-H460 worked out at 0. Also, the “Percentage Growth CNS SF-268” value in the data set on SF-268 came to 0. For the same molecule, the “Percentage Growth Breast MCF7” value in the data set with MCF7 is 0.
On to `CSc1ccc(-c2c(Cl)nc(Cl)nc2-c2ccccc2)cc1` [Example 12, 2,4-dichloro-5-[4-(methylthio)phenyl]-6-phenylpyrimidine], for which the melting point was in the range of 88 to 90 °C. Moreover, the “Percentage Growth Lung NCI-H460” value with NCI-H460 was found to be 0. In addition, the “Percentage Growth CNS SF-268” value with SF-268 came to 4. Further, in the data set on MCF7, the “Percentage Growth Breast MCF7” value is recorded as −1.
The molecule `CSc1ccc(-c2c(Cl)nc(Cl)nc2-c2ccc(Cl)cc2)cc1` [Example 13, 2,4-dichloro-6-(4-chlorophenyl)-5-[4-(methylthio)phenyl]pyrimidine] yielded a melting point of 144 to 146 °C. In addition, the “Rat Paw Edema model % Inhibition” value with Male Wistar rats stood at 47.8%. Further, testing at 0.1 µM against COX-2 gave an inhibition of 45.7%.
Molecule `NNc1nc(C(F)(F)F)nc(-c2ccccc2)c1-c1ccccc1` [Example 21, 4-hydrazino-5,6-diphenyl-2-(trifluoromethyl)pyrimidine] returned a melting point of 182 to 186 °C. In the data set on IL-6, this molecule registered an inhibition at 1 µM of 67.5%.
In the same order, the values of `Cc1ccc(-c2nc(C(F)(F)F)nc(NN)c2-c2ccccc2)cc1` [Example 22, 4-hydrazino-6-(4-methylphenyl)-5-phenyl-2-(trifluoromethyl)pyrimidine] are 188 to 191 °C and 52.3%.
`CS(=O)(=O)c1ccc(-c2nc(C(F)(F)F)nc(NN)c2-c2ccccc2)cc1` [Example 24, 4-hydrazino-6-[4-(methylsulfonyl)phenyl]-5-phenyl-2-(trifluoromethyl)pyrimidine] had a melting point of 272 to 275 °C. The inhibition at 10 µM in the data set with IL-6 was found to be 66%.
`CC(=O)NNc1nc(C(F)(F)F)nc(-c2ccc(C)cc2)c1-c1ccccc1` [Example 32, N′-[6-(4-methylphenyl)-5-phenyl-2-(trifluoromethyl)pyrimidin-4-yl]acetohydrazide] returned a melting point of 147 to 152 °C. In addition, the inhibition at 10 µM in the data set with IL-6 turned out to be 53.3%.
